# Measured values taken from US8329693B2, “Method for the prevention of thromboembolic disorders” (Orion Corporation, priority 2004, dated 2012).
# Legend:
# [1] = test system: Dahl SS rats on high-salt diet; experiment: Mortality in Dahl salt-sensitive rat stroke model (Experiment 2); assay type: in vivo; conditions: High-Salt diet + Levosimendan 1 mg/kg/day (2 mg/l in drinking water), 7 weeks, n=20; vehicle group 70%
# Experimental: (§1) Effect of levosimendan on the incidence of cerebral strokes in Dahl salt-sensitive rat stroke model was studied using Magnetic Resonance Imaging (MRI) and behavioural tests (Neuroscore and Functional Observational Battery (FOB)).
# (§2) Dahl SS rats were divided into three treatment groups: High-Salt diet+vehicle (n=20), High-Salt diet+Levosimendan 1 mg/kg/day (n=20), and Normal-Salt diet control (n=4). High salt diet contained 7% of NaCl in commercial low salt diet. Feeding with the high-salt diet was started at the age of 6 weeks and continued 7 weeks until the end of the study. Levosimendan was administered via drinking water (2 mg/l of levosimendan in drinking water). The administration was started at the same time as the high-salt diet and continued until the end of the study. The consumption of drinking water and food as well as the body weight and general health of the animals were monitored. MRI was performed once-a-week during the weeks 2-8. FOB and 7-point Neuroscore testing were performed once-a-week during the weeks 1-3 and twice-a-week during weeks the 4-8.
# [2] = test system: Dahl SS rats on high-salt diet; experiment: In vivo T2-weighted MRI of brain lesions, Dahl salt-sensitive rat stroke model; conditions: for share of animals with T2-lesion volume 0 mm^3 / share of animals with T2-lesion volume 1-50 mm^3 / share of animals with T2-lesion volume 51-100 mm^3 / share of animals with T2-lesion volume >200 mm^3: in vivo MRI
# Experimental: as §1, §2
# Diffusion and T2-weighted MRI using Varian Inova console interfaced to a 4.7 T horizontal magnet (Magnex Scientific Ltd.) was performed once-a-week on halothane-anesthetized rats. T2-weighted imaging and quantitative diffusion imaging were used to determine lesion size and to characterize plausible ischaemic lesions in Dahl SS rats. Typical lesions were heterogeneous and consisted of several different regions with different MRI characteristics. Hyperintensity in T2-weighted imaging was found in practically all animals with detectable abnormalities. This can be interpreted as oedematous tissue, which is typical for ischaemic tissue and is, in general, detectable starting at ˜12-24 h after occlusion of the feeding vessel. […] At the high magnetic field (4.7 T) used in this study, any ferromagnetic substance causes local disruption in magnetic field homogeneity which destroys the signal in T2-weighted imaging. This is a characteristic MRI feature for hemorrhage as haemoglobin in blood contains Fe. Thus almost all lesions detected in this study can be characterized to be associated with hemorrhage.
# [3] = test system: Dahl SS rats on high-salt diet; experiment: Ex vivo MRI of post-mortem brain, Dahl salt-sensitive rat stroke model; assay type: in vivo
# Experimental: as §2
# For ex-vivo imaging post-mortem brain was removed from the skull and immersed into 4% formalin for 48 h and thereafter stored in 0.1 M PBS. The brain was embedded in perfluoropolyether and MRI was performed in 9.4 T magnet (Oxford) interfaced to a SMIS-console. The interpretation of hyperintensity and signal void areas follows that presented for in vivo studies. In ex vivo studies only mature lesions with significant oedema and destructed tissue structure can be detected. Initial T2 contrast, which may be detectable in vivo, may not be visible in ex vivo studies. The findings in ex vivo studies support the idea that most of the ischemic lesions were associated with hemorrhage. […] Abbreviations: LS, levosimendan.
smiles,measurement,setting,value
"CC1CC(=O)NN=C1c1ccc(NN=C(C#N)C#N)cc1 (single isomer, unassigned; (-)) [levosimendan, (−)-enantiomer of [[4-(1,4,5,6-tetrahydro-4-methyl-6-oxo-3-pyridazinyl)phenyl]hydrazono]propanedinitrile]",mortality during the study,[1],5%
same,noticeable T2-weighted MRI changes,"[2]; 6th week of the study, more than 50% of vehicle treated animals had changes",no changes were observed
same,animals with detectable T2-weighted MRI changes,"[2]; at the last MRI measurement, 85% of vehicle treated animals",10%
same,share of animals with T2-lesion volume 0 mm^3,"[2]; week 2, lesion volume class 0 mm^3, levosimendan 1 mg/kg/day in drinking water",95%
same,share of animals with T2-lesion volume 1-50 mm^3,"[2]; week 2, lesion volume class 1-50 mm^3, levosimendan 1 mg/kg/day in drinking water",5%
same,share of animals with T2-lesion volume 51-100 mm^3,"[2]; week 2, lesion volume class 51-100 mm^3, levosimendan 1 mg/kg/day in drinking water",0%
same,share of animals with T2-lesion volume >200 mm^3,"[2]; week 2, lesion volume class >200 mm^3, levosimendan 1 mg/kg/day in drinking water",0%
same,share of animals with T2-lesion volume 0 mm^3,"[2]; week 3, lesion volume class 0 mm^3, levosimendan 1 mg/kg/day in drinking water",100%
same,share of animals with T2-lesion volume 1-50 mm^3,"[2]; week 3, lesion volume class 1-50 mm^3, levosimendan 1 mg/kg/day in drinking water",0%
same,share of animals with T2-lesion volume 51-100 mm^3,"[2]; week 3, lesion volume class 51-100 mm^3, levosimendan 1 mg/kg/day in drinking water",0%
same,share of animals with T2-lesion volume >200 mm^3,"[2]; week 3, lesion volume class >200 mm^3, levosimendan 1 mg/kg/day in drinking water",0%
same,share of animals with T2-lesion volume 0 mm^3,"[2]; week 4, lesion volume class 0 mm^3, levosimendan 1 mg/kg/day in drinking water",95%
same,share of animals with T2-lesion volume 1-50 mm^3,"[2]; week 4, lesion volume class 1-50 mm^3, levosimendan 1 mg/kg/day in drinking water",5%
same,share of animals with T2-lesion volume 51-100 mm^3,"[2]; week 4, lesion volume class 51-100 mm^3, levosimendan 1 mg/kg/day in drinking water",0%
same,share of animals with T2-lesion volume >200 mm^3,"[2]; week 4, lesion volume class >200 mm^3, levosimendan 1 mg/kg/day in drinking water",0%
same,share of animals with T2-lesion volume 0 mm^3,"[2]; week 5, lesion volume class 0 mm^3, levosimendan 1 mg/kg/day in drinking water",100%
same,share of animals with T2-lesion volume 1-50 mm^3,"[2]; week 5, lesion volume class 1-50 mm^3, levosimendan 1 mg/kg/day in drinking water",0%
same,share of animals with T2-lesion volume 51-100 mm^3,"[2]; week 5, lesion volume class 51-100 mm^3, levosimendan 1 mg/kg/day in drinking water",0%
same,share of animals with T2-lesion volume >200 mm^3,"[2]; week 5, lesion volume class >200 mm^3, levosimendan 1 mg/kg/day in drinking water",0%
same,share of animals with T2-lesion volume 0 mm^3,"[2]; week 6, lesion volume class 0 mm^3, levosimendan 1 mg/kg/day in drinking water",100%
same,share of animals with T2-lesion volume 1-50 mm^3,"[2]; week 6, lesion volume class 1-50 mm^3, levosimendan 1 mg/kg/day in drinking water",0%
same,share of animals with T2-lesion volume 51-100 mm^3,"[2]; week 6, lesion volume class 51-100 mm^3, levosimendan 1 mg/kg/day in drinking water",0%
same,share of animals with T2-lesion volume >200 mm^3,"[2]; week 6, lesion volume class >200 mm^3, levosimendan 1 mg/kg/day in drinking water",0%
same,share of animals with T2-lesion volume 0 mm^3,"[2]; week 7, lesion volume class 0 mm^3, levosimendan 1 mg/kg/day in drinking water",90%
same,share of animals with T2-lesion volume 1-50 mm^3,"[2]; week 7, lesion volume class 1-50 mm^3, levosimendan 1 mg/kg/day in drinking water",0%
same,share of animals with T2-lesion volume 51-100 mm^3,"[2]; week 7, lesion volume class 51-100 mm^3, levosimendan 1 mg/kg/day in drinking water",10%
same,share of animals with T2-lesion volume >200 mm^3,"[2]; week 7, lesion volume class >200 mm^3, levosimendan 1 mg/kg/day in drinking water",0%
same,share of animals with T2-lesion volume 0 mm^3,"[2]; week 8, lesion volume class 0 mm^3, levosimendan 1 mg/kg/day in drinking water",89%
same,share of animals with T2-lesion volume 1-50 mm^3,"[2]; week 8, lesion volume class 1-50 mm^3, levosimendan 1 mg/kg/day in drinking water",5%
same,share of animals with T2-lesion volume 51-100 mm^3,"[2]; week 8, lesion volume class 51-100 mm^3, levosimendan 1 mg/kg/day in drinking water",0%
same,share of animals with T2-lesion volume >200 mm^3,"[2]; week 8, lesion volume class >200 mm^3, levosimendan 1 mg/kg/day in drinking water",5%
same,"Incidence of T2 changes, class 0","[3]; class 0, levosimendan 1 mg/kg/day",80%
same,"Incidence of T2 changes, class 1-50","[3]; class 1-50, levosimendan 1 mg/kg/day",20%
same,"Incidence of T2 changes, class 51-100","[3]; class 51-100, levosimendan 1 mg/kg/day",0%
same,"Incidence of T2 changes, class >200","[3]; class >200, levosimendan 1 mg/kg/day",0%
